By AUC(0-inf) is commonly meant the area under the concentration-time curve extrapolated to infinity. A high value points to high exposure. The term AUC(0-t) denotes the area under the concentration-time curve up to a stated or last time point. Lower therefore signals less exposure. What is called half-life is how long it takes for the measured level to halve. Read a low half-life as fast loss. Usually Cmax stands for the peak of the concentration-time curve. The Tmax is the time at which the peak concentration occurs.

Series [1] can be described thus: Pharmacokinetics after intravenous bolus and oral gavage. It counts as in vivo, Swiss albino mice. As to conditions: for F: 50 mg/kg vs IV 5 mg/kg.
Series [2] has as its system chronic EAE induced by MOG35-55 peptide. The series can be described thus: In vivo test on model of chronic EAE (Experimental Autoimmune Encephalomyelitis). Also noted: species or system C57BL/6 female mice.
[3] abbreviates: mouse, in vivo, IV (5 mg/kg), Swiss albino mice, mean.
[4] abbreviates: mouse, in vivo, PO (50 mg/kg), Swiss albino mice, mean.
Where [5] appears, read: oral, first 10 days from immunization, versus placebo group.
The mark [6] stands for this setting: IV, 5 mg/kg, Swiss albino mice, mean.
Where [7] appears, read: PO, 50 mg/kg, Swiss albino mice, mean.

Like-named read-outs stand apart in the source and are kept apart here.

`Fc1ccc(C2=C(CN3CCCC3)COc3ccc(OCC4CC4)cc32)cc1` [AX-104, 1-((6-(cyclopropylmethoxy)-4-(4-fluorophenyl)-2H-chromen-3-yl)methyl)pyrrolidine] yielded a F in series [1] (PO, Swiss albino mice) of 24. The bioavailability in series [1] (Swiss albino, mouse, in vivo, 50 mg/kg, oral gavage vs intravenous bolus, text says rats, n=3, read-out: total bioavailability after oral administration) amounted to 24%. Also, in series [1] (setting [3]), the AUC(0-inf) amounted to 750 ng·h/mL, the AUC(0-t) turned out to be 724 ng·h/mL, the clearance was determined as 111 mL/min/kg and the half-life was 507 min. Also, the Cmax in series [1] (mouse, in vivo, IV (5 mg/kg), Swiss albino mice, mean, read-out: Cmax) turned out to be 1280 ng/mL. In series [1] (mouse, in vivo, IV (5 mg/kg), Swiss albino mice, mean, read-out: Vss), the Vd amounted to 20.6 L/kg. In series [1] (setting [4]), the AUC(0-inf) worked out at 1790 ng·h/mL and the AUC(0-t) was 1760 ng·h/mL. Moreover, the Cmax in series [1] (mouse, in vivo, PO (50 mg/kg), Swiss albino mice, mean, read-out: Cmax) came to 930 ng/mL. The time to peak (Tmax) in series [1] (mouse, in vivo, PO (50 mg/kg), Swiss albino mice, mean, read-out: Tmax) turned out to be 15 min. For the same compound, in series [2] (setting [5]), the “clinical score of the disease (scale 0-6), FIG. 2” value is given as “reduced score when compared to the placebo group” and the “weight of the animals (weight loss), FIG. 3” value was “weight loss significantly reduced”. In series [2] (overall results of the EAE study), the “impact of the symptoms associated to the model” value is given as “significantly reducing the impact of the symptoms”.

With `COc1ccc2c(c1)C(c1ccc(F)cc1)=C(CN1CCCC1)CO2` [ECRA-24], in series [1] (setting [6]), the AUCint worked out at 840.27 ng·h/mL, the AUClast came out at 838.43 ng·h/mL, the CL amounted to 99.17 mL/min/kg and the maximum concentration (Cmax) is given as 1168.89 ng/mL. Besides, in series [1] (setting [6]), the T1/2 is reported as 3.36 h and the Vss was 11.37 L/kg. The F in series [1] (PO, Swiss albino mice) came out at 4. In series [1] (setting [7]), this compound registered an AUCint of 299.69 ng·h/mL, an AUClast of 297.03 ng·h/mL, a Cmax of 171.56 ng/mL and a T1/2 of 4.93 h. In series [1] (setting [7]), the Tmax was found to be 15 min.

These data come from patent publication US10131647B2, “Chromene derivatives substituted by alkoxide as inhibitors of the TCR-Nck interaction” (ARTAX BIOPHARMA INC., priority 2013, dated 2018).
